Calls of active or inactive are those of the source. No cut-off for these calls is given here.
Tests used:
[1] = AUC (0 to t) in mouse at 5.5 mg/kg, ip by HPLC/MS/MS analysis; type: ADME, organism-based; conditions: in vivo
[2] = Cmax in mouse tumor at 5 mg/kg, po by HPLC/MS/MS analysis; type: ADME, organism-based, Neoplasm
NCI-H1417 = assay: In vivo inhibition of LSD1 in human NCI-H1417 cells xenografted in nude mouse assessed as change in SNTB1 gene expression measured after 24 hrs post single administration by qRT-PCR analysis; type: functional, organism-based; conditions: dose 0.02-135 mg/kg
[3] = Effect on cleaved PARP level in human NCI-H146 cells assessed as relative expression at 1000 nM measured after 14 days by Western blot analysis (reference value: 2.42); type: functional; conditions: time 14 day
[4] = Effect on cleaved PARP level in human NCI-H146 cells assessed as relative expression at 100 nM measured after 14 days by Western blot analysis (reference value: 2.42); type: functional; conditions: time 14 day
NCI-H526 = assay: Effect on cell cycle in human NCI-H526 cells assessed as cell accumulation at […] phase upto 1000 nM measured for 7 to 14 days by flow cytometry; type: functional, cell-based; conditions: time 7-14 day
[5] = Effect on cleaved PARP level in human NCI-H69 cells assessed as relative expression at 100 nM measured after 14 days by Western blot analysis (reference value: 0.03); type: functional; conditions: time 14 day
[6] = Toxicity in rat assessed as congestion in lymphoid organs measured for 28 days; conditions: in vivo, 672 h, time 28 day
NCI-H510A [7] = assay: Antitumor activity against human NCI-H510A cells xenografted in nude mouse assessed as mean tumor volume at 1.5 mg/kg, po administered daily measured twice weekly (reference value: 1028 +/- 182 mm3); type: functional
[8] = Oral bioavailability in mouse at 5 mg/kg by HPLC/MS/MS analysis; type: ADME, organism-based; conditions: in vivo
[9] = Effect on cleaved PARP level in human COLO-668 cells assessed as fold change at 10 nM measured after 10 days by Western blot analysis (reference value: 1.00); type: functional; conditions: time 10 day
[10] = Effect on cleaved PARP level in human NCI-H524 cells assessed as relative expression at 1000 nM measured after 10 days by Western blot analysis (reference value: 0.95); type: functional; conditions: time 10 day
[11] = Effect on cleaved PARP level in human NCI-H1417 cells assessed as relative expression at 100 nM measured after 14 days by Western blot analysis (reference value: 0.38); type: functional; conditions: time 14 day
[12] = Effect on cleaved PARP level in human NCI-H2171 cells assessed as relative expression at 10 nM measured after 7 days by Western blot analysis (reference value: 0.02); type: functional; conditions: time 7 day
[13] = Effect on cleaved PARP level in human NCI-H510 cells assessed as relative expression at 10 nM measured after 14 days by Western blot analysis (reference value: 0.01); type: functional, NCI-H510A; conditions: time 14 day
[14] = Effect on cleaved PARP level in human NCI-H526 cells assessed as fold change at 1000 nM measured after 10 days by Western blot analysis (reference value: 1.00); type: functional; conditions: time 10 day
[15] = Effect on cleaved PARP level in human NCI-H1417 cells assessed as relative expression at 1000 nM measured after 7 days by Western blot analysis (reference value: 0.10); type: functional; conditions: time 7 day
[16] = Toxicity in dog assessed as myelofibrosis measured for 28 days; design: species or system Canis lupus familiaris; conditions: in vivo, 672 h, time 28 day
NCI-H510A [17] = assay: Antitumor activity against human NCI-H510A cells xenografted in nude mouse assessed as tumor growth inhibition at 1.5 mg/kg, po administered daily measured twice weekly relative to control; type: functional; conditions: read-out: TGI
[18] = Effect on cleaved PARP level in human NCI-H1417 cells assessed as fold change at 100 nM measured after 14 days by Western blot analysis (reference value: 1.00); type: functional; conditions: time 14 day

| SMILES | AUC(0-t) [1] | Cmax [2] | inhibition (NCI-H1417) | Activity [3] | Activity [4] | Activity (NCI-H526) | Activity [5] | Activity [6] | Activity (NCI-H510A [7]) | bioavailability [8] | fold change (FC) [9] | Activity [10] | Activity [11] | Activity [12] | Activity [13] | fold change (FC) [14] | Activity [15] | Activity [16] | inhibition in vivo at 1.5 mg/kg (NCI-H510A [17]) | fold change (FC) [18] |
| --- | --- | --- | --- | --- | --- | --- | --- | --- | --- | --- | --- | --- | --- | --- | --- | --- | --- | --- | --- | --- |
| c1ccc([C@@H]2C[C@H]2NC2CCNCC2)cc1 | 871 ng·h/mL |  |  |  |  |  |  |  |  |  |  |  |  |  |  |  |  |  |  |  |
| O=C(O)c1ccc(CN2CCC(CN[C@@H]3C[C@H]3c3ccccc3)CC2)cc1 [GSK2879552] |  | 355 ng/mL | Dose-Dependent Effect | 1.45 | 1.09 | inactive | 0.16 | Toxic | 705 mm3 | 59.2% | 0.75 | 0.79 | 0.32 | 0.03 | 0.32 | 1.43 | 0.36 | Toxic | 38% | 0.83 |

— ChEMBL document CHEMBL5705903, “A DNA Hypomethylation Signature Predicts Antitumor Activity of LSD1 Inhibitors in SCLC” (Cancer Cell, 2015)
